The NIST ThermoML archive (doi:10.1016/j.jct.2011.06.020)
Numbers after ± are expanded uncertainties.

Experiment: refractive index (Na D-line) (dimensionless); xn = mol fraction of the nth substance listed
Conditions: 101 kPa, Liquid, Standard Abbe refractometry

CN1CCNCC1 [N-methylpiperazine] + O
refractive index
Conditions | 293.15 K | 298.15 K | 303.15 K | 308.15 K | 313.15 K | 323.15 K | 328.15 K | 333.15 K
x1 = 0.0521 | 1.374 ± 0.001 | 1.373 ± 0.001 | 1.373 ± 0.001 | 1.372 ± 0.001 | 1.371 ± 0.001 | 1.369 ± 0.001 | 1.368 ± 0.001 | 1.366 ± 0.001
x1 = 0.0725 | 1.389 ± 0.001 | 1.388 ± 0.001 | 1.387 ± 0.001 | 1.386 ± 0.001 | 1.384 ± 0.001 | 1.382 ± 0.001 | 1.381 ± 0.001 | 1.379 ± 0.001
x1 = 0.1039 | 1.406 ± 0.001 | 1.405 ± 0.001 | 1.403 ± 0.001 | 1.402 ± 0.001 | 1.401 ± 0.001 | 1.397 ± 0.001 | 1.396 ± 0.001 | 1.396 ± 0.001
x1 = 0.2091 | 1.44 ± 0.001 | 1.438 ± 0.001 | 1.436 ± 0.001 | 1.434 ± 0.001 | 1.432 ± 0.001 | 1.428 ± 0.001 | 1.427 ± 0.001 | 1.425 ± 0.001
x1 = 0.3101 | 1.453 ± 0.001 | 1.451 ± 0.001 | 1.449 ± 0.001 | 1.447 ± 0.001 | 1.445 ± 0.001 | 1.441 ± 0.001 | 1.439 ± 0.001 | 1.437 ± 0.001
x1 = 0.4096 | 1.459 ± 0.001 | 1.457 ± 0.001 | 1.455 ± 0.001 | 1.453 ± 0.001 | 1.451 ± 0.001 | 1.446 ± 0.001 | 1.444 ± 0.001 | 1.442 ± 0.001
x1 = 0.5109 | 1.462 ± 0.001 | 1.46 ± 0.001 | 1.458 ± 0.001 | 1.456 ± 0.001 | 1.454 ± 0.001 | 1.449 ± 0.001 | 1.447 ± 0.001 | 1.445 ± 0.001
x1 = 0.608 | 1.464 ± 0.001 | 1.462 ± 0.001 | 1.46 ± 0.001 | 1.457 ± 0.001 | 1.455 ± 0.001 | 1.451 ± 0.001 | 1.448 ± 0.001 | 1.446 ± 0.001
x1 = 0.7065 | 1.465 ± 0.001 | 1.463 ± 0.001 | 1.461 ± 0.001 | 1.458 ± 0.001 | 1.456 ± 0.001 | 1.451 ± 0.001 | 1.449 ± 0.001 | 1.447 ± 0.001
x1 = 0.8069 | 1.466 ± 0.001 | 1.463 ± 0.001 | 1.461 ± 0.001 | 1.459 ± 0.001 | 1.456 ± 0.001 | 1.452 ± 0.001 | 1.449 ± 0.001 | 1.447 ± 0.001
x1 = 0.8819 | 1.466 ± 0.001 | 1.464 ± 0.001 | 1.461 ± 0.001 | 1.459 ± 0.001 | 1.457 ± 0.001 | 1.452 ± 0.001 | 1.449 ± 0.001 | 1.447 ± 0.001
x1 = 1 | 1.466 ± 0.001 | 1.464 ± 0.001 | 1.461 ± 0.001 | 1.459 ± 0.001 | 1.457 ± 0.001 | 1.452 ± 0.001 | 1.449 ± 0.001 | 1.447 ± 0.001
